≈ marks a conversion by molar mass, not a printed value. Calls of active or inactive are those of the source. The rule behind the calls is not given here.
How the values were obtained:
[1] = test system: Human immunodeficiency virus 1; test: Antiviral activity against HIV1 MN infected in human C8166 cells assessed as reduction in antigen gp120 production by ELISA; type: functional, organism-based; settings: Human immunodeficiency virus 1, MN
[2] = Selectivity index, ratio of TC50 for uninfected human C8166 cells to EC50 for HIV1 MN infected in human C8166 cells; type: toxicity, cell-based; settings: uninfected C8166 cells and HIV-1 MN-infected C8166 cells, read-out: Selectivity Index
[3] = test system: Human immunodeficiency virus 1; test: Antiviral activity against HIV1 3B infected in human C8166 cells assessed as syncytia formation at 5 fold EC50 preincubated for 5 to 6 days before infection measured after 2 days postinfection by XTT-formazan method; type: functional, organism-based
[4] = Cytotoxicity against uninfected human C8166 cells by XTT-formazan method; type: cell-based; settings: read-out: TC50 (the source's name)

Compound | EC50 [1] | selectivity ratio [2] | Activity [3] | CC50 [4]
COc1cc(O[C@@H]2O[C@H](CO[C@@H]3O[C@H](CO)[C@@H](O)[C@H](O)[C@H]3O)[C@@H](O)[C@H](O)[C@H]2O)c2c(O)c3c(=O)oc(C)cc3c(OC)c2c1 | 75 µg/mL (≈ 120 µM) | 2 | inactive | 150 µg/mL (≈ 239 µM)
COc1cc(O[C@@H]2O[C@H](CO[C@@H]3OC[C@H](O)[C@H](O)[C@H]3O)[C@@H](O)[C@H](O)[C@H]2O)c2c(O)c3c(=O)oc(C)cc3c(OC)c2c1 | 18 µg/mL (≈ 30.2 µM) | 8.9 | inactive | 160 µg/mL (≈ 268 µM)
COc1cc(O[C@@H]2O[C@H](CO[C@@H]3O[C@@H](C)[C@H](O)[C@@H](O)[C@H]3O)[C@@H](O)[C@H](O)[C@H]2O)c2c(O)c3c(=O)oc(C)cc3c(OC)c2c1 | 30 µg/mL (≈ 49.1 µM) | 3.3 | inactive | 100 µg/mL (≈ 164 µM)
Cc1cn([C@H]2C[C@H](N=[N+]=[N-])[C@@H](CO)O2)c(=O)[nH]c1=O [ZIDOVUDINE] | 0.016 µg/mL (≈ 0.0599 µM) | – | – | > 1000 µg/mL
COc1cc(O[C@@H]2O[C@H](CO)[C@@H](O)[C@H](O)[C@H]2O)c2c(O)c3c(=O)oc(C)cc3c(OC)c2c1 | 38 µg/mL (≈ 81.8 µM) | 4.2 | inactive | 160 µg/mL (≈ 345 µM)

— ChEMBL document CHEMBL1150851, “Naphthopyranone glycosides from Paepalanthus microphyllus” (J Nat Prod, 2001)
